Legend:
[1] = molecular target: ALK tyrosine kinase receptor (Homo sapiens) (UniProt Q9UM73); assay: Inhibition of human ALK assessed as residual activity at 1 uM using PolyEY as substrate in presence of 33P-ATP by ProQinase assay relative to control
[2] = molecular target: Mitogen-activated protein kinase 6 (Homo sapiens) (UniProt Q16659); assay: Inhibition of ERK3 (unknown origin) assessed as remaining activity at 1 uM by Kinome scan method relative to control
[3] = molecular target: T1, Megakaryocyte-associated tyrosine-protein kinase (Homo sapiens) (UniProt P42679); assay: Inhibition of human MATK assessed as residual activity at 1 uM using polyEy as substrate in presence of 33P-ATP by ProQinase assay relative to control
T1 sequence (whole entry): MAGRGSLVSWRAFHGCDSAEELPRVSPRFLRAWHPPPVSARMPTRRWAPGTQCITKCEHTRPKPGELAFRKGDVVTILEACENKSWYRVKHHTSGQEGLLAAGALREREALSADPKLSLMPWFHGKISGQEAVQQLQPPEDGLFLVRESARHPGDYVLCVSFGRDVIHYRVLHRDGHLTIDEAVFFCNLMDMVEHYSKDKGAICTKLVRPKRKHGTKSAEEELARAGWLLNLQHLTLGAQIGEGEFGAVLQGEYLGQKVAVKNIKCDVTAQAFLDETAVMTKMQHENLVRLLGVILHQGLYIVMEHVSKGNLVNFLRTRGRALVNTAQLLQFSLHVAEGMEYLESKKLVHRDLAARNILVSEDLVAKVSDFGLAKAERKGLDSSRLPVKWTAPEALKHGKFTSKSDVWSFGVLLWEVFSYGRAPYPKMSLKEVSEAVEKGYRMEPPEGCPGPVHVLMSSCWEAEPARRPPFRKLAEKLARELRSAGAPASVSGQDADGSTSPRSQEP

[4] = molecular target: MAP kinase-interacting serine/threonine-protein kinase 1 (Homo sapiens) (UniProt Q9BUB5); assay: Inhibition of human MKNK1 assessed as residual activity at 1 uM using RB-S6P as substrate in presence of 33P-ATP by ProQinase assay relative to control
MAP kinase-interacting serine/threonine-protein kinase 1 (Homo sapiens), sequence (Q9BUB5 whole entry, looked up): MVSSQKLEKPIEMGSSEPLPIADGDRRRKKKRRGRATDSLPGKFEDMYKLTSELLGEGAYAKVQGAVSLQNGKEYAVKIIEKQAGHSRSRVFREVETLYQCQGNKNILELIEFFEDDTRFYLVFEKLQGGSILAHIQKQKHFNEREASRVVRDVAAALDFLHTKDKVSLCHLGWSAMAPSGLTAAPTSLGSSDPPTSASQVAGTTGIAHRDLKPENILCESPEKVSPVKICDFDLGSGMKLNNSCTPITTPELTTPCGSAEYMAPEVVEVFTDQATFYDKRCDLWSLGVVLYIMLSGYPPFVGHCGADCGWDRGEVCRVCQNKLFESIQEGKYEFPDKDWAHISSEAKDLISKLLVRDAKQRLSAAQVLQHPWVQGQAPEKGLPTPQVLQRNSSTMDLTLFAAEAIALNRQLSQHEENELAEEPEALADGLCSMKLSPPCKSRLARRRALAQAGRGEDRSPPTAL

[5] = Anti-inflammatory activity against human derived medium respond PBMC cells assessed as inhibition in stimulated IL-1beta cytokine release incubated for 2 hrs in the presence of LPS/SEB/aCD28 by Luminex based sandwich immunoassay; assay type: functional, cell-based
[6] = molecular target: Rho-associated protein kinase 2 (Homo sapiens) (UniProt O75116); assay: Inhibition of human ROCK2 assessed as residual activity at 1 uM using RB-S6P as substrate in presence of 33P-ATP by ProQinase assay relative to control
[7] = molecular target: Insulin receptor-related protein (Homo sapiens) (UniProt P14616); assay: Inhibition of human INSRR assessed as residual activity at 1 uM using poly(Ala,Glu,Lys,Tyr)6:2:5:1 as substrate in presence of 33P-ATP by ProQinase assay relative to control
[8] = molecular target: Cyclin-dependent kinase-like 3 (Homo sapiens) (UniProt Q8IVW4); assay: Inhibition of CDKL3 (unknown origin) assessed as remaining activity at 1 uM by Kinome scan method relative to control
[9] = molecular target: Mitogen-activated protein kinase 11 (Homo sapiens) (UniProt Q15759); assay: Inhibition of human P38beta assessed as residual activity at 1 uM using ATF2 as substrate in presence of 33P-ATP by ProQinase assay relative to control
Mitogen-activated protein kinase 11 (Homo sapiens), sequence (Q15759 whole entry): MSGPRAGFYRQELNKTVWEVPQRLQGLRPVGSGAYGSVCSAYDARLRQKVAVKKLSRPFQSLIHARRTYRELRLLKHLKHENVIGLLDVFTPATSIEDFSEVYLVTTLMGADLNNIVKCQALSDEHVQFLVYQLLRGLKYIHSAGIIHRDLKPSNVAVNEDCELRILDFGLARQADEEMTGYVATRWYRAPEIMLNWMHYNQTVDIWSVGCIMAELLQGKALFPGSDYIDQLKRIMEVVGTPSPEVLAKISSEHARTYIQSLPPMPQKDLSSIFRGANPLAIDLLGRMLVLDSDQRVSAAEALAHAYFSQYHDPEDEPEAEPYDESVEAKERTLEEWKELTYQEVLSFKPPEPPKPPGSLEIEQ

[10] = tested on: Epidermal growth factor receptor (Homo sapiens), P00533 [G719S]; assay: Inhibition of EGFR G719S mutant (unknown origin) assessed as remaining activity at 1 uM by Kinome scan method relative to control
[11] = molecular target: Lymphokine-activated killer T-cell-originated protein kinase (Homo sapiens) (UniProt Q96KB5); assay: Inhibition of human PBK assessed as residual activity at 1 uM using histon H1 as substrate in presence of 33P-ATP by ProQinase assay relative to control
[12] = molecular target: T2, Aurora kinase C (Homo sapiens) (UniProt Q9UQB9); assay: Inhibition of human AuroraC assessed as residual activity at 1 uM using bio-4xCHKT as substrate in presence of 33P-ATP by ProQinase assay relative to control
T2 sequence (whole entry): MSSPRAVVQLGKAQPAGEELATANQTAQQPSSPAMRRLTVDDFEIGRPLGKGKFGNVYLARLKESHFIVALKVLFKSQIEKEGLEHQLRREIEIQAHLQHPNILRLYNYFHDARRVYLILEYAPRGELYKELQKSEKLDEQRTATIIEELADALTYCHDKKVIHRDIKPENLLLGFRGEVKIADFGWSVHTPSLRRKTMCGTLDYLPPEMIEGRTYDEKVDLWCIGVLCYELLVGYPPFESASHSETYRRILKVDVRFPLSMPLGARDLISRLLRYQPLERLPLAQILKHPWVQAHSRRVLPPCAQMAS

[13] = molecular target: RAC-alpha serine/threonine-protein kinase (Homo sapiens) (UniProt P31749); assay: Inhibition of human AKT1 assessed as residual activity at 1 uM using RBER-GSK3(14-27) as substrate in presence of 33P-ATP by ProQinase assay relative to control
[14] = molecular target: Insulin-like growth factor 1 receptor (Homo sapiens) (UniProt P08069); assay: Inhibition of human IGF1R assessed as residual activity at 1 uM using polyEY as substrate in presence of 33P-ATP by ProQinase assay relative to control
[15] = molecular target: Receptor tyrosine-protein kinase erbB-2 (Homo sapiens) (UniProt P04626); assay: Inhibition of ERBB2 (unknown origin) assessed as remaining activity at 1 uM by Kinome scan method relative to control
Receptor tyrosine-protein kinase erbB-2 (Homo sapiens), sequence (P04626 whole entry): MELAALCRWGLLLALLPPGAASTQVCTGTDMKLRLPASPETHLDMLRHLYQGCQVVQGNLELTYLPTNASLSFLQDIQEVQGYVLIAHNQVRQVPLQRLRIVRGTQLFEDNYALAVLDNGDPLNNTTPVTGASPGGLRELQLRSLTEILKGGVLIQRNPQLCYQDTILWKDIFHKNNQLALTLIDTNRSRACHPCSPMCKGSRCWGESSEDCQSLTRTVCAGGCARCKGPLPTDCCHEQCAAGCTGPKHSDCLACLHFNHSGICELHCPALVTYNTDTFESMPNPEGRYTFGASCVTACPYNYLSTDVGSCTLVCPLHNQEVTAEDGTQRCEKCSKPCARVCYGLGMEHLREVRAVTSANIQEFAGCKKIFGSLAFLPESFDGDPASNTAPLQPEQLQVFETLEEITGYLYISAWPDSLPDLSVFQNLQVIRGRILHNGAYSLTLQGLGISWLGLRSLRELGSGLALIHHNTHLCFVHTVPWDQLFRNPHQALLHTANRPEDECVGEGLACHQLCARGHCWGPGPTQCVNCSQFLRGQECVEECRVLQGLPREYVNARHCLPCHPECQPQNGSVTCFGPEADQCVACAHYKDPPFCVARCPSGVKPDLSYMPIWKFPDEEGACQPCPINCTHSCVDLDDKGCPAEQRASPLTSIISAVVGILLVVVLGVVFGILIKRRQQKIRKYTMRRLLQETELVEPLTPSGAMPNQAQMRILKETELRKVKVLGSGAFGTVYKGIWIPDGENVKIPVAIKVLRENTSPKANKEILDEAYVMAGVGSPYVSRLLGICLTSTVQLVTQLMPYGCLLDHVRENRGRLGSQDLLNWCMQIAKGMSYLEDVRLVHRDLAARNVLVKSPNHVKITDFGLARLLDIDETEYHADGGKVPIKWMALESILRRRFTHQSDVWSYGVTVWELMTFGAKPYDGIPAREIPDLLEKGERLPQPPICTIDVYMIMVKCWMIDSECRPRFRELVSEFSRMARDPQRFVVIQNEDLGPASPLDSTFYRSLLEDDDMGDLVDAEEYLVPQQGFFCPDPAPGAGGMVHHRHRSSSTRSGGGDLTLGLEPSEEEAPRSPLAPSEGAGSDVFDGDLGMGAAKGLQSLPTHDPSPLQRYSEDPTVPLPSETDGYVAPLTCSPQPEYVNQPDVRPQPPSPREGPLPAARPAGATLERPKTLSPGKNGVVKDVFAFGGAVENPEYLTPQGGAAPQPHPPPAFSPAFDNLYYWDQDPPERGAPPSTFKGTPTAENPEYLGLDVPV

[16] = molecular target: G protein-coupled receptor kinase 5 (Homo sapiens) (UniProt P34947); assay: Inhibition of human GRK5 assessed as residual activity at 1 uM using casein as substrate in presence of 33P-ATP by ProQinase assay relative to control
[17] = molecular target: Ephrin type-B receptor 2 (Homo sapiens) (UniProt P29323); assay: Inhibition of EPHB2 (unknown origin) assessed as remaining activity at 1 uM by Kinome scan method relative to control
Ephrin type-B receptor 2 (Homo sapiens), sequence (P29323 whole entry): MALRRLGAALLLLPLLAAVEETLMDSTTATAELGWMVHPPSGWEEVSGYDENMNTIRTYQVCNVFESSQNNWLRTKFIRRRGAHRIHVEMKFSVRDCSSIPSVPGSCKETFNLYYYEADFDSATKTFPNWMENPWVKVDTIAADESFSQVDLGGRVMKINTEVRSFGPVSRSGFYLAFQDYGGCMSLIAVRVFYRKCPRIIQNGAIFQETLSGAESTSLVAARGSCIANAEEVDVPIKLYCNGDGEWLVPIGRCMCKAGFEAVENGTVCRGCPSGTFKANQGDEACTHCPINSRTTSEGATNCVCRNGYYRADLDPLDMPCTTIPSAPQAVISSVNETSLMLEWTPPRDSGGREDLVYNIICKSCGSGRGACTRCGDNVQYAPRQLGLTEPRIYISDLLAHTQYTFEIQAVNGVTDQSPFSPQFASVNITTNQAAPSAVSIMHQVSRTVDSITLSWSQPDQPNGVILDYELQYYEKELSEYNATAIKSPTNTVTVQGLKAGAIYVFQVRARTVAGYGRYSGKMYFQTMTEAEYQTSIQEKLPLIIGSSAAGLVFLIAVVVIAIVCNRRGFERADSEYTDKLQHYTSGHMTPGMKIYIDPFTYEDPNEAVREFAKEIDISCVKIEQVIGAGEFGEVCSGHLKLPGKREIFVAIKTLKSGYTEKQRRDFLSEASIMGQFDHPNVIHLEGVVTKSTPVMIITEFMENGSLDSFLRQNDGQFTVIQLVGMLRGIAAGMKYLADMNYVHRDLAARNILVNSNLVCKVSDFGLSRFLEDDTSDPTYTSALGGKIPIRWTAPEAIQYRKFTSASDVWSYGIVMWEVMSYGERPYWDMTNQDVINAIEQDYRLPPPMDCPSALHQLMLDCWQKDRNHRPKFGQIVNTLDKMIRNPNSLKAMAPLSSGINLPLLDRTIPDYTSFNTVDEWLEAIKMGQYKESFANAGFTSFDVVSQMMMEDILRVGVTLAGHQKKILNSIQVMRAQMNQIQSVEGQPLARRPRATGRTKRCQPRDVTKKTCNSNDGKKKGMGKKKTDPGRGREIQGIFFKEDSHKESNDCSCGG

[18] = molecular target: CDK4/Cyclin D3 (Homo sapiens) (UniProt P11802+P30281); assay: Inhibition of human CDK4/CycD3 assessed as residual activity at 1 uM using RBER-CHKtide as substrate in presence of 33P-ATP by ProQinase assay relative to control; assay type: protein-complex assay
[19] = molecular target: Serine/threonine-protein kinase pim-1 (Homo sapiens) (UniProt P11309); assay: Inhibition of human PIM1 assessed as residual activity at 1 uM using RBER-GSK3(14-27) as substrate in presence of 33P-ATP by ProQinase assay relative to control
Serine/threonine-protein kinase pim-1 (Homo sapiens), sequence (P11309 whole entry, looked up): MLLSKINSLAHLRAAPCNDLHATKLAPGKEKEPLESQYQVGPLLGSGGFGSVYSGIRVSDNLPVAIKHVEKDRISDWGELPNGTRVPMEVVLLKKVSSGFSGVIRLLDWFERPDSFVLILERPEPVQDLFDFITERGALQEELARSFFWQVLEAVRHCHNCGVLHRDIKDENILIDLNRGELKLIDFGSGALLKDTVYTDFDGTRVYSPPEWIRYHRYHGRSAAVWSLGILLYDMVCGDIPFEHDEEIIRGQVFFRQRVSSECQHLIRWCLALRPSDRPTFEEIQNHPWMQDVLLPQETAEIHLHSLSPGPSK

[20] = molecular target: Mitogen-activated protein kinase kinase kinase 20 (Homo sapiens) (UniProt Q9NYL2); assay: Inhibition of human ZAK assessed as residual activity at 1 uM using MBP as substrate in presence of 33P-ATP by ProQinase assay relative to control
Mitogen-activated protein kinase kinase kinase 20 (Homo sapiens), sequence (Q9NYL2 2-800 limits assumed): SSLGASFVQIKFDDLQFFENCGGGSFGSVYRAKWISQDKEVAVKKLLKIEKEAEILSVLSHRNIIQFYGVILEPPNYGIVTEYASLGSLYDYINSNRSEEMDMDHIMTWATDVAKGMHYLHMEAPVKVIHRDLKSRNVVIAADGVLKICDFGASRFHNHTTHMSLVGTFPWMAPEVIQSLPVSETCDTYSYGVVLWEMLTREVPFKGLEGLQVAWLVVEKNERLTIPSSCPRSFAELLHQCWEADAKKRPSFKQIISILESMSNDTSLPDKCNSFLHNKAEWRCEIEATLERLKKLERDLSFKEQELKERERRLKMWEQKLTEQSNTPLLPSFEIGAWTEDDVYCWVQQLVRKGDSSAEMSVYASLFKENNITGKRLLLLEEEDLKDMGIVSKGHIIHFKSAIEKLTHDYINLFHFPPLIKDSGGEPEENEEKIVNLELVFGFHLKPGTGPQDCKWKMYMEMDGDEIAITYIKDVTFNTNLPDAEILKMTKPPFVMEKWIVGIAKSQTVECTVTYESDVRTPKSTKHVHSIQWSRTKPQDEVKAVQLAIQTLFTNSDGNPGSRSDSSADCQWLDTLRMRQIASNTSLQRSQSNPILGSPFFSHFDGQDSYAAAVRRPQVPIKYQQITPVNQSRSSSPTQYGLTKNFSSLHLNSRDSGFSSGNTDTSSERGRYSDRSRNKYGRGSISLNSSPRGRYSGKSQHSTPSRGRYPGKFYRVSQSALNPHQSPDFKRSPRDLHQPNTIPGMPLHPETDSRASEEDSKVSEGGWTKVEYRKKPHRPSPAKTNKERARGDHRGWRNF

[21] = molecular target: Serine/threonine-protein kinase 3 (Homo sapiens) (UniProt Q13188); assay: Inhibition of MST2 (unknown origin) assessed as remaining activity at 1 uM by Kinome scan method relative to control

Mitogen-activated protein kinase 6 (Homo sapiens), sequence (Q16659 whole entry): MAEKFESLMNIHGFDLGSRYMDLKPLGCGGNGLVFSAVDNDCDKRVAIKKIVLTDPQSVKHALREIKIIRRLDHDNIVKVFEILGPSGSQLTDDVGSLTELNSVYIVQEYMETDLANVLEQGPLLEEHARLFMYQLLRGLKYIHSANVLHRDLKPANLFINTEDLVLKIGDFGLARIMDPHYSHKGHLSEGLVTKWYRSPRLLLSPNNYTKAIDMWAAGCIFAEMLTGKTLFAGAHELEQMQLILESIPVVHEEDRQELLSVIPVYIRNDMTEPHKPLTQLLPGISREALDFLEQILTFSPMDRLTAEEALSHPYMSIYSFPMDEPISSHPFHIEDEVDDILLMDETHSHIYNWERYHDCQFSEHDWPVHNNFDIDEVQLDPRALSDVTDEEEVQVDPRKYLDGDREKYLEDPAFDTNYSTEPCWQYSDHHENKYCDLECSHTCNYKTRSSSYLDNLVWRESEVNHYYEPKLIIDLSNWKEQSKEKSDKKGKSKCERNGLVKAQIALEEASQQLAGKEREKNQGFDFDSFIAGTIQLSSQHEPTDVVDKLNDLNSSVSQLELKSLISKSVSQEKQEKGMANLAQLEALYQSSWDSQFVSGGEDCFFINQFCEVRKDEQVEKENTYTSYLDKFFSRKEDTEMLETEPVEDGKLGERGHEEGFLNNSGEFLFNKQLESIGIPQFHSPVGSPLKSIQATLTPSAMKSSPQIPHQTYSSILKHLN

## O=C1c2ccc(Nc3ccc(F)cc3F)cc2CCc2ccc(OC[C@H](O)CO)cc21 [Skepinone-L]
[1]
  Activity: 104%
[2]
  Activity: 100%
[3]
  Activity: 111%
[4]
  Activity: 69%
[5]
  IC50: 1.59 µM
[6]
  Activity: 90%
[7]
  Activity: 98%
[8]
  Activity: 78%
[9]
  Activity: 3%
[10]
  Activity: 94%
[11]
  Activity: 113%
[12]
  Activity: 85%
[13]
  Activity: 102%
[14]
  Activity: 98%
[15]
  Activity: 100%
[16]
  Activity: 121%
[17]
  Activity: 97%
[18]
  Activity: 98%
[19]
  Activity: 105%
[20]
  Activity: 98%
[21]
  Activity: 100%
